Earlier results as cited in US20200275650A1, “NOVEL POLYMER COATED CHLO[…]” (priority 2017, published 2020).

Details: technical chlorothalonil; well documented

N#Cc1c(Cl)c(Cl)c(Cl)c(C#N)c1Cl [technical chlorothalonil, chlorothalonil]
Median Lethal Concentration (acute inhalation toxicity): 0.1 mg/L
